We go through one molecule from publication PMC11228983, “Rapid Protein–Ligand Affinity Determination by Photoinduced Hyperpolarized NMR” (Journal of the American Chemical Society, 2024).

SMILES strings stand for the structures. Residues, ends and D or L forms follow the SMILES beside them.

In test [1] the target is T1, PDZ2 domain of human tyrosine phosphatase 1E (hPTP1E) (Homo sapiens, UniProt Q12923).
T1 construct: the constructs used for the PDZ2 domain of human tyrosine phosphatase 1E; polyhistidine (N); made in house; host or cells: Escherichia coli BL21 (DE3)
T1 sequence (Q12923 1368-1452 limits assumed): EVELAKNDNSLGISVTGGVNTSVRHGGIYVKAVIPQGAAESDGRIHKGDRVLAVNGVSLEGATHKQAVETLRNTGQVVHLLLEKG
In words: Competition CIDNP-KD assay with photo-CIDNP-active reporter peptide. Format: binding. Conditions: reporter WVSAV 20 μM (KD,R 170 μM), 5 μM PDZ2; 1000 ms irradiation, single scan; read-out: Competition CIDNP-KD (KD,C), Hβ of reporter WVSAV. The text has this: Photo-CIDNP hyperpolarization is limited to a particular chemical space of ligands that contain heteroaromatics and heterosubstituted aromatic rings.[24],[29] To address the challenge of limited chemical space, we extend CIDNP-KD to measure the affinity of nonpolarizable ligands through competition with a polarizable reporter ligand R, whose affinity KD,R is known as depicted in Scheme 2. By adding a competitor C, the concentration and photo-CIDNP signal of the reporter ligand R* will increase, indicating the reduced amount of the complex PR* and, by extension, PR.[30]
To calculate the concentration of the ligand–protein complex in the presence of the binding competitor, the ratio of the amplification factors in the presence and absence of the competitor [drawing 6] […]
These competitor ligands lack a tryptophan residue, whereas the reporter ligands WVSAV and WQVSAV are photo-CIDNP-active due to the tryptophan tag. The hyperpolarized signal of WVSAV or WQVSAV in the presence of the PDZ2 domain was measured for increasing concentrations of the peptides QVSAV or ENEQVSAV, respectively. […]
Figure 3 KD determination of nonphoto-CIDNP-active peptides binding to a PDZ2 domain. […] The bound reporter population is plotted, calculated from the hyperpolarized tryptophan Hβ using eq 7. […] Each data point is measured with a single-scan experiment with a laser irradiation duration of (A) 1000 ms or (B) 2000 ms. […]

Test [2] deals with T1, PDZ2 domain of human tyrosine phosphatase 1E (hPTP1E). The test can be described thus: 2D [1H,15N]-HSQC chemical shift perturbation titration. Format: binding. The note with it: 30 μM 15N PDZ2, pH 6.8, 298 K. The method, then: We compared the affinities of the peptides obtained via CIDNP-KD with the state-of-the-art 2D [^1H, ^15N]-HSQC titration experiments measured with 30 μM PDZ2 (Figure S3).
Expression and purification were carried out as in previously reported procedures. In short, expression in Escherichia coli cells (BL21 (DE3)) and purification via Ni-NTA chromatography as the constructs used for the PDZ2 domain of human tyrosine phosphatase 1E and human PIN1 both contained N-terminal polyhistidine tags. Both protein constructs were measured in an NMR buffer consisting of 50 mM NaCl, 20 mM KPO4, and 10% D2O at pH 6.8. For the control [^1H, ^15N]-HSQC experiments, the PDZ2 domain was expressed in ^15N-enriched minimal medium.[34],[43]
All photo-CIDNP and STD-NMR experiments were recorded at 298 K on a Bruker Avance III HD 600 MHz spectrometer equipped with a cryoprobe. The [^15N, ^1H] – HSQC titration experiments of the PDZ2 domain were performed also at 298 K on another Bruker Avance IIII HD 600 MHz spectrometer equipped with a cryoprobe and SampleJet.
Peak picking was performed with the maximal peak picking tool of Mnova software. Plotting, fitting, and data analysis was done in RStudio with the workflow described above. The [^15N, ^1H]-HSQC reference affinities were analyzed with CCPNMR3.1.[62] The backbone assignment was taken from BMRB 34688.
Fig. S3: 2D [15N, 1H]-HSQC titration of peptides to hPDZ2 domain. The 2D [ 15N, 1H]-
HSQC spectra of the titration series in presence of 30 µM hPDZ2 domain and the
corresponding observed chemical shift difference of A74 plotted versus the peptide
(1 picture or pasted object on this page, not shown here)

As to `CC(C)[C@H](NC(=O)[C@H](C)NC(=O)[C@H](CO)NC(=O)[C@@H](NC(=O)[C@@H](N)CCC(N)=O)C(C)C)C(=O)O` [QVSAV] (H-QVSAV-OH), the Kd in test [1] is 580 ± 30 µM; in test [2] (15N–1H moiety of A74, read-out: [1H,15N]-HSQC–CSP KD, NH of A74), 155 ± 10 µM; in test [2] (range over residues, read-out: [1H,15N]-HSQC–CSP KD range of all residues showing chemical shift perturbation) it was 90 to 750 µM.
